Legend:
Test in all cases: KinomeScan
Format in all cases: binding
Conditions in all cases: read-out: % Ctrl @ 10000 nM
TNK2 = biological target: T1, TNK2 (Homo sapiens, UniProt Q07912)
T1 construct: host or cells: E. coli host derived from BL21, T7 phage
Summary of the method: (§1)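 Binding is measured by competition: test compound displaces kinase-tagged phage from immobilized ligand, and phage remaining bound is titered by qPCR after elution.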

ABL1(E255K) = biological target: T2, ABL1(E255K) (Homo sapiens, UniProt P00519, E255K)
T2 construct: host or cells: E. coli (BL21-derived), T7 phage lysate
Summary of the method: as §1

p38-delta = biological target: T3, p38-delta (Homo sapiens, UniProt O15264)
T3 construct: host or cells: E. coli host derived from BL21, infected with T7 phage
Summary of the method: as §1

KIT(V559D, T670I) = biological target: T4, KIT(V559D, T670I) (Homo sapiens, UniProt P10721, T670I/V559D)
T4 construct: host or cells: T7 phage grown in E. coli host derived from BL21
Summary of the method: as §1

ERK8 = biological target: T5, ERK8 (Homo sapiens, UniProt Q8TD08)
T5 construct: purchased Ambit Biosciences Corp; host or cells: T7 phage in E. coli host derived from BL21
Summary of the method: as §1

MLK1 = biological target: T6, MLK1 (Homo sapiens, UniProt P80192)
T6 construct: host or cells: T7 phage grown in E. coli host derived from BL21
Summary of the method: as §1

INSR = biological target: T7, INSR (Homo sapiens, UniProt P06213)
T7 construct: host or cells: T7 phage grown in E. coli host derived from BL21
Summary of the method: as §1

ERK5 = biological target: T8, ERK5 (Homo sapiens, UniProt Q13164)
T8 construct: purchased Ambit Biosciences Corp; host or cells: T7 phage in E. coli host derived from BL21
Summary of the method: as §1

ABL1(T315I) = biological target: T9, ABL1(T315I) (Homo sapiens, UniProt P00519, T315I)
T9 construct: host or cells: E. coli (BL21-derived), T7 phage lysate
Summary of the method: as §1

ITK = biological target: T10, ITK (Homo sapiens, UniProt Q08881)
T10 construct: host or cells: T7 phage grown in E. coli host derived from BL21
Summary of the method: as §1

EPHB1 = biological target: T11, EPHB1 (Homo sapiens, UniProt P54762)
T11 construct: purchased Ambit Biosciences Corp; host or cells: T7 phage in E. coli host derived from BL21
Summary of the method: as §1

MET = biological target: T12, MET (Homo sapiens, UniProt P08581)
T12 construct: host or cells: E. coli host derived from the BL21 strain, infected with T7 phage
Summary of the method: as §1

PIK3CG = biological target: T13, PIK3CG (Homo sapiens, UniProt P48736)
T13 construct: host or cells: T7 phage in E. coli host derived from BL21
Summary of the method: as §1

ACVRL1 = biological target: T14, ACVRL1 (Homo sapiens, UniProt P37023)
T14 construct: host or cells: E. coli (BL21-derived), T7 phage lysate
Summary of the method: as §1

MLK2 = biological target: T15, MLK2 (Homo sapiens, UniProt Q02779)
T15 construct: host or cells: T7 phage grown in E. coli host derived from BL21
Summary of the method: as §1

YANK2 = biological target: T16, YANK2 (Homo sapiens, UniProt Q9NY57)
T16 construct: host or cells: E. coli host derived from BL21, T7 phage
Summary of the method: as §1

EGFR = biological target: T17, EGFR (Homo sapiens, UniProt P00533)
T17 construct: purchased Ambit Biosciences Corp (KinomeScan); host or cells: T7 phage in E. coli host derived from BL21
Summary of the method: as §1

SYK = biological target: T18, SYK (Homo sapiens, UniProt P43405)
T18 construct: host or cells: T7 phage grown in E. coli (BL21-derived)
Summary of the method: as §1

ANKK1 = biological target: T19, ANKK1 (Homo sapiens, UniProt Q8NFD2)
T19 construct: host or cells: E. coli (BL21-derived), T7 phage lysate
Summary of the method: as §1

PDGFRB = biological target: T20, PDGFRB (Homo sapiens, UniProt P09619)
T20 construct: host or cells: E. coli host derived from BL21, infected with T7 phage
Summary of the method: as §1

AURKA = biological target: T21, AURKA (Homo sapiens, UniProt O14965)
T21 construct: host or cells: E. coli host derived from BL21
Summary of the method: as §1

PKN1 = biological target: T22, PKN1 (Homo sapiens, UniProt Q16512)
T22 construct: host or cells: T7 phage in E. coli host derived from BL21
Summary of the method: as §1

AKT3 = biological target: T23, AKT3 (Homo sapiens, UniProt Q9Y243)
T23 construct: host or cells: E. coli (BL21-derived), T7 phage lysate
Summary of the method: as §1

TXK = biological target: T24, TXK (Homo sapiens, UniProt P42681)
T24 construct: host or cells: E. coli host derived from BL21, T7 phage
Summary of the method: as §1

PRKD2 = biological target: T25, PRKD2 (Homo sapiens, UniProt Q9BZL6)
T25 construct: host or cells: T7 phage in E. coli host derived from BL21
Summary of the method: as §1

MKNK2 = biological target: T26, MKNK2 (Homo sapiens, UniProt Q9HBH9)
T26 construct: host or cells: T7 phage grown in E. coli host derived from BL21
Summary of the method: as §1

CSK = biological target: T27, CSK (Homo sapiens, UniProt P41240)
T27 construct: host or cells: T7 phage in E. coli host derived from BL21
Summary of the method: as §1

ERK1 = biological target: T28, ERK1 (Homo sapiens, UniProt P27361)
T28 construct: purchased Ambit Biosciences Corp; host or cells: T7 phage in E. coli host derived from BL21
Summary of the method: as §1

SRPK1 = biological target: T29, SRPK1 (Homo sapiens, UniProt Q96SB4)
T29 construct: host or cells: T7 phage grown in E. coli (BL21-derived)
Summary of the method: as §1

ABL2 = biological target: T30, ABL2 (Homo sapiens, UniProt P42684)
T30 construct: host or cells: E. coli (BL21-derived), T7 phage lysate
Summary of the method: as §1

FLT3(D835H) = biological target: T31, FLT3(D835H) (Homo sapiens, UniProt P36888, D835H)
T31 construct: host or cells: T7 phage in E. coli host derived from BL21
Summary of the method: as §1

PAK3 = biological target: T32, PAK3 (Homo sapiens, UniProt O75914)
T32 construct: host or cells: E. coli host derived from BL21, infected with T7 phage
Summary of the method: as §1

MST2 = biological target: T33, MST2 (Homo sapiens, UniProt Q13188)
T33 construct: host or cells: T7 phage grown in E. coli host derived from BL21
Summary of the method: as §1

TNK1 = biological target: T34, TNK1 (Homo sapiens, UniProt Q13470)
T34 construct: host or cells: E. coli host derived from BL21, T7 phage
Summary of the method: as §1

T1 sequence (Q07912 whole entry): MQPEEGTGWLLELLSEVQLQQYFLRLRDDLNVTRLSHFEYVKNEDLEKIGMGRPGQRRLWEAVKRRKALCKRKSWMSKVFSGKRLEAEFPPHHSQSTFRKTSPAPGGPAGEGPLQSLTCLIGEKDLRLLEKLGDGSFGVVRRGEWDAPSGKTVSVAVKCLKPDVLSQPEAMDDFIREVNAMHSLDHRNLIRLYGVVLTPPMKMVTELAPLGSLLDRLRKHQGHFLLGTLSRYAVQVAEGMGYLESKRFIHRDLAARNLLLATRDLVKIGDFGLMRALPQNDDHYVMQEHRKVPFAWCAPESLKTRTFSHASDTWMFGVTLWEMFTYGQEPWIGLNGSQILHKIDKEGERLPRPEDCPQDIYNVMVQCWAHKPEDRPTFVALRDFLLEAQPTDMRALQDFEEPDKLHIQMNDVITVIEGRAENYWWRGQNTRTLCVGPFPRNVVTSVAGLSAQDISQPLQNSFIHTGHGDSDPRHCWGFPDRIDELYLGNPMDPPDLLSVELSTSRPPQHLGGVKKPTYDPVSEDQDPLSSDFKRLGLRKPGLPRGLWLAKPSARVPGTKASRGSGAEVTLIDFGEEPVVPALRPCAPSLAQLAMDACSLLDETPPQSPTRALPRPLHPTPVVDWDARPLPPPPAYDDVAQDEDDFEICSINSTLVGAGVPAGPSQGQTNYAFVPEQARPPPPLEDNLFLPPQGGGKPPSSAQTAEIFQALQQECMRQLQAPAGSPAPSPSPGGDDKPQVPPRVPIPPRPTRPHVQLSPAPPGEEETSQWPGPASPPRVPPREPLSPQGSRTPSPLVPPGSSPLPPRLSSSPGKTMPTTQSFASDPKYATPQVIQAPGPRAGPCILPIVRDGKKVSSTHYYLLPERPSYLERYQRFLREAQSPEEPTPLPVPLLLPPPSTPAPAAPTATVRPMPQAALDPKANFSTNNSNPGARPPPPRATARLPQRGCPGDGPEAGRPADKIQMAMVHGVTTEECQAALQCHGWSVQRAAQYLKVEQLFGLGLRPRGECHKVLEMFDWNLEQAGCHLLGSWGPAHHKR
T7 sequence (P06213 28-1382): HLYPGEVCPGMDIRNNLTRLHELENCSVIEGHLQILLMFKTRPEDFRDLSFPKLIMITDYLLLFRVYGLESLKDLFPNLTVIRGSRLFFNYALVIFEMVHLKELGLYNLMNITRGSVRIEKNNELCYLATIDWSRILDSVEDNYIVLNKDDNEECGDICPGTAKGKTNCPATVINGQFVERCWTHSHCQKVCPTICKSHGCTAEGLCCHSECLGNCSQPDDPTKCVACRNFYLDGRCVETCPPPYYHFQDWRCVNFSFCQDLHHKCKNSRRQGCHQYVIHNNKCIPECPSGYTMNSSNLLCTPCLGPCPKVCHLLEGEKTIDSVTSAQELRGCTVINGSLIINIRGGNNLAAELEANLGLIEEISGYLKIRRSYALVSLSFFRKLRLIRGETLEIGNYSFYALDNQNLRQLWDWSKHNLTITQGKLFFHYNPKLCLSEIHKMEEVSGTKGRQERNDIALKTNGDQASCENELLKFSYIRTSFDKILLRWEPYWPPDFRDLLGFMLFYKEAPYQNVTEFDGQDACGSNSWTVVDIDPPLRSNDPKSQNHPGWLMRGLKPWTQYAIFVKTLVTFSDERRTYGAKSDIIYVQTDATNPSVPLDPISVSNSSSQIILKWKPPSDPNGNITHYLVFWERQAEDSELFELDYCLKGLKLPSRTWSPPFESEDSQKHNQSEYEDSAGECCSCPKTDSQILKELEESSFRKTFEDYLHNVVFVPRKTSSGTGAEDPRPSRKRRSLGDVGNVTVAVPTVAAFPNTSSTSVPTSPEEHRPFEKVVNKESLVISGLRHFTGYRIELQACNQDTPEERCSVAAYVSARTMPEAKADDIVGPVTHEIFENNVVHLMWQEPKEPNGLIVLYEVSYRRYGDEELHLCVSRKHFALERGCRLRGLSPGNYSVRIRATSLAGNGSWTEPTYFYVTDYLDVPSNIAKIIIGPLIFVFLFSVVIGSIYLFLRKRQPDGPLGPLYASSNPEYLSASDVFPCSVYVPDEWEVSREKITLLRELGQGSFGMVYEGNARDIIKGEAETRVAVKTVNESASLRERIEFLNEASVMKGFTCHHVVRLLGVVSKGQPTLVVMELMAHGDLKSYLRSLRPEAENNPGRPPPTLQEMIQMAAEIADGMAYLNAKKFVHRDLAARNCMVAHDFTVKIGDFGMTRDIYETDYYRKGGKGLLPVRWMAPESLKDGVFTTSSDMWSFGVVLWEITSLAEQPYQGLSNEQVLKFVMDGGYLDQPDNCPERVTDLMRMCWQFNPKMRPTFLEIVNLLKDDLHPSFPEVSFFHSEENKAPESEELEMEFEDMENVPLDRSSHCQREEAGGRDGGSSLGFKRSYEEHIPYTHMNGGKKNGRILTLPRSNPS
T23 sequence (Q9Y243 whole entry): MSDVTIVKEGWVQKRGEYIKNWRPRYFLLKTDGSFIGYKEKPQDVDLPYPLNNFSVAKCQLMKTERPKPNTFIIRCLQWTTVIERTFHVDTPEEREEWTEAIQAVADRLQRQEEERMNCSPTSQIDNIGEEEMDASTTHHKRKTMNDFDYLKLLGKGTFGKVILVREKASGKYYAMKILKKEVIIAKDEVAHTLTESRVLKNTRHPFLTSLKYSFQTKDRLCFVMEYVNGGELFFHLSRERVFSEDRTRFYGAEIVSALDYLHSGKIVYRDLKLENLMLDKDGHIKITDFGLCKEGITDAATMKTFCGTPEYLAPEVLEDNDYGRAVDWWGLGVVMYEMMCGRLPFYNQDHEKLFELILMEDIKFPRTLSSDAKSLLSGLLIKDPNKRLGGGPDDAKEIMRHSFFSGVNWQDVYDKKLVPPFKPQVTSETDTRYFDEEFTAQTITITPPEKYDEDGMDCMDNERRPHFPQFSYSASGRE
T5 sequence (Q8TD08 whole entry): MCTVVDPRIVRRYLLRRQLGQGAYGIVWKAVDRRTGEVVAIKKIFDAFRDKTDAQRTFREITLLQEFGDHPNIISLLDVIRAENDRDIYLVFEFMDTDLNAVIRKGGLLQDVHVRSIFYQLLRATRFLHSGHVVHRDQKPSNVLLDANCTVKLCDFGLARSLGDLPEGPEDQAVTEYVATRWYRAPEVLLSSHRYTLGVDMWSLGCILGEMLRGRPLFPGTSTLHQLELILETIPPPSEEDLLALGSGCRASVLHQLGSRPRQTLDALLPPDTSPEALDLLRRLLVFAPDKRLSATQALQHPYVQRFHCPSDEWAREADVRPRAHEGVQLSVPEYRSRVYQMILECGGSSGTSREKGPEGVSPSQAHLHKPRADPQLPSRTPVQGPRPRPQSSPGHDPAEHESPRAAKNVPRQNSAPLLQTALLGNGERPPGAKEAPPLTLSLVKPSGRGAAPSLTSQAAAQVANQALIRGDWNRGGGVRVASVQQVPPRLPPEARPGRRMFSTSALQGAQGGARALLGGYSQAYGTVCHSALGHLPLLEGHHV
T16 sequence (Q9NY57 whole entry): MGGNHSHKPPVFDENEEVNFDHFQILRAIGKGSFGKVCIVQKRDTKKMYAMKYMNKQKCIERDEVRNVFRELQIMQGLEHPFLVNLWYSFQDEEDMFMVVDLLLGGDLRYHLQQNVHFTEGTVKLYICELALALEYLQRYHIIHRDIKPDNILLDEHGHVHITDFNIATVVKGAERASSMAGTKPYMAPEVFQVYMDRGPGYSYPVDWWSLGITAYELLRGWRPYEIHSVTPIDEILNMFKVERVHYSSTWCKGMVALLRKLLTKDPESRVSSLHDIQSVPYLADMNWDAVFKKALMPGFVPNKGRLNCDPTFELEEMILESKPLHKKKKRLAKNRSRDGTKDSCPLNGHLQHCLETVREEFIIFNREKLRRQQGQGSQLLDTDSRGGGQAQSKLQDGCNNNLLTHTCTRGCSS
T21 sequence (O14965 whole entry): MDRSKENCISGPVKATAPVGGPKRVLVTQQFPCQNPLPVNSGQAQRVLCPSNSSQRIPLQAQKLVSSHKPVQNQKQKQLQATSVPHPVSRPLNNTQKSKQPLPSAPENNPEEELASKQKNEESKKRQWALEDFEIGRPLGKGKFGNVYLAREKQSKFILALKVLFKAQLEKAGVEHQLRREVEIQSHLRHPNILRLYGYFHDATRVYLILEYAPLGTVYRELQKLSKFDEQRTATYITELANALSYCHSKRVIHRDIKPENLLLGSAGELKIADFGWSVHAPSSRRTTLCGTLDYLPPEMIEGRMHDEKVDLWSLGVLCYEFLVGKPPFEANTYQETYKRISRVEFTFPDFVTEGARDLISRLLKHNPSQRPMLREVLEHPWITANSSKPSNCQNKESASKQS
T14 sequence (P37023 22-503): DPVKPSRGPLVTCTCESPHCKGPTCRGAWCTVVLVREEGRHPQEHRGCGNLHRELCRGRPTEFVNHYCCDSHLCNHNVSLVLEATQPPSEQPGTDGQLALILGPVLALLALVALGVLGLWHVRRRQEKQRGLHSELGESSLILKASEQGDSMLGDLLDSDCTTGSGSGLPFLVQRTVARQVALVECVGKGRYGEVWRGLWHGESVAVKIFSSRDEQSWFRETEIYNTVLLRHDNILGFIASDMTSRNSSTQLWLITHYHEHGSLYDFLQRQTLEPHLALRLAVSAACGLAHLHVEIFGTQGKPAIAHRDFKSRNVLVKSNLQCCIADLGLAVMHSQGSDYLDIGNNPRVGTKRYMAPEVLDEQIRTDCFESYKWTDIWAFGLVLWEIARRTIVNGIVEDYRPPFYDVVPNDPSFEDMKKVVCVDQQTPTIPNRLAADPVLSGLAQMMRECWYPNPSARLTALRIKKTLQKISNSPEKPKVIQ

SMILES: C#Cc1cccc(Nc2ncnc3cc(OC)c(OCCCN4CCOCC4)cc23)c1 [NRC-2694, N-(3-ethynylphenyl)-7-methoxy-6-[3-(4-morpholinyl)propoxy]-4-quinazolinamine]
- remaining binding at 10 µM (TNK2): 37%
- remaining binding at 10 µM (ABL1(E255K)): 80%
- remaining binding at 10 µM (p38-delta): 100%
- remaining binding at 10 µM (KIT(V559D, T670I)): 28%
- remaining binding at 10 µM (ERK8): 62%
- remaining binding at 10 µM (MLK1): 100%
- remaining binding at 10 µM (INSR): 90%
- remaining binding at 10 µM (ERK5): 90%
- remaining binding at 10 µM (ABL1(T315I)): 35%
- remaining binding at 10 µM (ITK): 82%
- remaining binding at 10 µM (EPHB1): 72%
- remaining binding at 10 µM (MET): 33%
- remaining binding at 10 µM (PIK3CG): 78%
- remaining binding at 10 µM (ACVRL1): 91%
- remaining binding at 10 µM (MLK2): 83%
- remaining binding at 10 µM (YANK2): 68%
- remaining binding at 10 µM (EGFR): 0%
- remaining binding at 10 µM (SYK): 56%
- remaining binding at 10 µM (ANKK1): 73%
- remaining binding at 10 µM (PDGFRB): 10%
- remaining binding at 10 µM (AURKA): 100%
- remaining binding at 10 µM (PKN1): 50%
- remaining binding at 10 µM (AKT3): 66%
- remaining binding at 10 µM (TXK): 39%
- remaining binding at 10 µM (PRKD2): 0.4%
- remaining binding at 10 µM (MKNK2): 16%
- remaining binding at 10 µM (CSK): 53%
- remaining binding at 10 µM (ERK1): 98%
- remaining binding at 10 µM (SRPK1): 40%
- remaining binding at 10 µM (ABL2): 43%
- remaining binding at 10 µM (FLT3(D835H)): 8.1%
- remaining binding at 10 µM (PAK3): 55%
- remaining binding at 10 µM (MST2): 85%
- remaining binding at 10 µM (TNK1): 41%

Source: patent US8921362B2, “6,7-dialkoxy quinazoline derivatives and methods of treating drug resistant and other tumors” (Natco Pharma Limited, priority 2008, dated 2014)
